Test [1] addresses T1, IDO1 (Homo sapiens (Human), UniProt P14902). In words: IDO1 In Vivo Assay (hIDO1-CT26 murine model). The arrangement: species or system mouse. To be noted: oral administration, 100 and 300 mg/kg. The protocol: hIDO1-CT26, a murine cell line generated in house to constitutively express the human IDO1 protein, was cultured in RPMI-1640+10% FBS+500 μM L-tryptophan in a standard cell incubator (37° C., 5% CO2). At 80% confluency, cells are rinsed in TrypLE, then incubated with TrypLE until fully detached (usually 1-5 min), resuspended in complete media, spun down (1000 rpm, 4° C., 5 min), and resuspended in phenol red-free RPMI-1640 before counting.
Two millions hIDO1-CT26 cells (20×10E6 cells/ml) in 50% phenol red-free RPMI-1640/50% Matrigel (growth factor reduced, GFR) are implanted subcutaneously in the right flank of anesthetized immunocompromised animals (CD-1 Nu/Nu, Charles River Labs). Ten days following implantation, tumors reach an average volume of 180 mm^3 at which point animals are randomized into treatment groups.
Animals are treated with IDO1 inhibitors by oral gavage (PO) every 12 h (BID dosing). Based on experimental design, animals will receive a minimum of 1 dose. At various times following the last dose, animals will be euthanized (CO2 asphyxiation), blood will be collected via cardiac puncture for plasma, and tumors will be resected. For plasma preparation, whole blood is transferred to plasma tube, and stored on ice prior to centrifugation. […]

Test [2] has as its target T1, IDO1. Put plainly: IDO1 Human Whole Blood Assay. As to conditions: LPS and IFNγ 100 ng/mL, kynurenine by LC/MS/MS. The class given is cell-based.

T1 sequence (P14902 whole entry): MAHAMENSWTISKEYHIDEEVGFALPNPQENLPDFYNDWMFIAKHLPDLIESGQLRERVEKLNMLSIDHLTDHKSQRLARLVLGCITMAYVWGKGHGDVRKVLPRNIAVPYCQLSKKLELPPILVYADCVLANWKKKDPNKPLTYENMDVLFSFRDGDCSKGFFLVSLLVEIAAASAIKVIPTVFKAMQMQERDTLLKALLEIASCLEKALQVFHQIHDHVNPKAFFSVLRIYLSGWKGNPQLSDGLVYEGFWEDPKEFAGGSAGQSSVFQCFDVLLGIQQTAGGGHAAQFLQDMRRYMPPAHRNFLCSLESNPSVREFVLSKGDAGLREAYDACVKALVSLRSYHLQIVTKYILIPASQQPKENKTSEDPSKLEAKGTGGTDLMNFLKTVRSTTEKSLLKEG

For the molecule `O=C(CSc1nonc1/C(=N/O)Nc1ccc(F)c(Br)c1)NC[C@@H](O)CO` [Example 42, (R)-2-((4-(N-(3-bromo-4-fluorophenyl)-N′-hydroxycarbamimidoyl)-1,2,5-oxadiazol-3-yl)thio)-N-(2,3-dihydroxypropyl)acetamide], the “kynurenine levels in both plasma and tumor” value at IDO1 [1] is given as “dose-dependent reduction”. The same molecule had a half-inhibitory concentration (IC50) against IDO1 [2] of 519 nM.

`NC(=O)NCCSc1nonc1/C(=N/O)Nc1ccc(F)c(Br)c1` [Example 46, N-(3-Bromo-4-fluorophenyl)-N′-hydroxy-4-((2-ureidoethyl)thio)-1,2,5-oxadiazole-3-carboximidamide]: the “kynurenine levels in both plasma and tumor” value at IDO1 [1] is given as “dose-dependent reduction”. Further, the IC50 against IDO1 [2] worked out at 239 nM.

A word on the IC50: it is the concentration at which inhibition is half-maximal.

For the origin of these results see US10538497B2, “Compounds as indoleamine 2,3-dioxygenase inhibitors” (Merck Sharp & Dohme Corp., priority 2015, dated 2020).
